Test results published in US7879789B2, “Surfactant and composition containing the same” (priority 2006, dated 2011).

Assay: Emulsion stability of Table 1 blending compositions with various emulsifiers
Format: physicochemical
Settings: storage at low temperature; Table 2
Method: The present inventors have prepared various polyoxyalkylene substitution compounds according to the respective synthesis examples and evaluated the emulsion stability for the blending compositions shown in Table 1. The various evaluation items are as follows. “Emulsion Stability” The oil phase component, water phase component, and various emulsifiers shown in Table 1 were mixed, and the emulsification mixing was carried out with a homomixer at 8000 rpm for 1 minute. The appearance was visually observed 30 minutes after emulsification, and the appearances were also observed after being stored for 3 days on standing at room temperature and also at −5° C., respectively. The evaluation criteria were as follows. • ◯ . . . The emulsion was uniform and milky white. • Δ . . . A small amount of floating oil was observed; however, it was milky white. • X . . . Solid matter was observed, or the separation of the water phase and the oil phase was observed.

Structure (SMILES)	emulsion stability at low temperature (in words)
CCCCCCCCCCCCOS(=O)(=O)[O-].[Na+] [Comparative Examples 1-1, Dodecyl sodium sulfate]	the emulsifier separated out
CCCCCCCCCCCC(=O)N[C@@H](CCC(=O)[O-])C(=O)[O-].[Na+].[Na+] [1-2, Sodium lauroyl-glutamate]	the emulsifier separated out
